The values that follow come from ChEMBL document CHEMBL3217528, “Bicyclic imidazole-4-one derivatives: a new class of antagonists for the orphan G protein-coupled receptors GPR18 and GPR55” (Medchemcomm, 2014).

One may read the Ki as the dissociation constant of the complex between target and ligand, obtained from inhibition or displacement. A word on the inhibition: it is the drop in the measured response relative to a control, in per cent. Usually IC50 stands for the concentration that inhibits the measured activity by half.

For assay [1], the target named is Cannabinoid receptor 1 (Rattus norvegicus) (UniProt P20272). In words: Intrinsic activity at CB1 receptor in rat brain cortical membranes assessed as stimulation of [35S]GTPgammaS binding at 10 uM by liquid scintillation counting method relative to CP55,940. The format is functional, cell membranes.
The target in assay [2] is Cannabinoid receptor 1 (Rattus norvegicus, UniProt P20272). The experiment in a line: Displacement of [3H]CP55,940 from CB1 receptor in rat brain cortical membranes. The format is cell membranes. (Displacement assays read how much labelled ligand stays bound in the presence of the test substance.)
In assay [3] the target is T1, G-protein coupled receptor 55 (Homo sapiens, UniProt Q9Y2T6). The experiment in a line: Agonist activity at human GPR55 expressed in CHO cells assessed as induction of LPI-induced beta-arrestin recruitment by beta-galactosidase enzyme fragment complementation method relative to LPI. The assay is classed as cell-based. Also on record: concentration or dose not given beside the values. (Arrestin recruitment assays detect the binding of arrestin to an activated receptor.)

Assay [4] has as its target T2, N-arachidonyl glycine receptor (Homo sapiens) (UniProt Q14330).
T2 sequence (whole entry): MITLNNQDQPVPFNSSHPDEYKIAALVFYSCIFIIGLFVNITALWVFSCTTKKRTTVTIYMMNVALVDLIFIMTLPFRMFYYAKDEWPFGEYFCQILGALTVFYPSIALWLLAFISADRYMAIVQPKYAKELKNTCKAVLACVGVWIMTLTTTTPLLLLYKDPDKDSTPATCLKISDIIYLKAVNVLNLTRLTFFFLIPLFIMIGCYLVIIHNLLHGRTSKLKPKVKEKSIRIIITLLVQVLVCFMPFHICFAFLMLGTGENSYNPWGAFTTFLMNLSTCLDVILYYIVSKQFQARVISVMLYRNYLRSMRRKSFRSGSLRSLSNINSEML
In words: Agonist activity at human GPR18 expressed in CHO cells assessed as induction of beta-arrestin recruitment by beta-galactosidase enzyme fragment complementation method relative to delta9-THC. The format is cell-based. Also noted: concentration or dose not given beside the values.

The target in assay [5] is T3, Cannabinoid receptor 2 (Homo sapiens, UniProt P34972). In words: Displacement of [3H]CP55,940 from human recombinant CB2 receptor expressed in HEK293 cells. The format is cell-based.
Assay [6] addresses T1, G-protein coupled receptor 55. In words: Antagonist activity against human GPR55 expressed in CHO cells assessed as reduction in LPI-induced beta-arrestin recruitment at 10 uM by beta-galactosidase enzyme fragment complementation method. The format is cell-based.
Assay [7] deals with T3, Cannabinoid receptor 2. In words: Displacement of [3H]CP55,940 from human recombinant CB2 receptor expressed in HEK293 cells at 10 uM. The format is cell-based.
Assay [8] has as its target T4, N-arachidonyl glycine receptor (Homo sapiens, UniProt Q14330).
T4 sequence (Q14330 whole entry): T2 sequence (whole entry)
The experiment in a line: Antagonist activity against human GPR18 expressed in CHO cells assessed as reduction in delta9-THC-induced beta-arrestin recruitment by beta-galactosidase enzyme fragment complementation method. The assay is classed as cell-based.

In assay [9] the target is T5, Cannabinoid receptor 1 (Homo sapiens, UniProt P21554). The experiment in a line: Intrinsic activity at human recombinant CB1 receptor expressed in HEK293 cell membranes assessed as stimulation of [35S]GTPgammaS binding at 10 uM by liquid scintillation counting method relative to CP55,940. The assay is classed as functional.
The target in assay [10] is T1, G-protein coupled receptor 55. In words: Antagonist activity against human GPR55 expressed in CHO cells assessed as reduction in LPI-induced beta-arrestin recruitment by beta-galactosidase enzyme fragment complementation method. The assay is classed as cell-based.
Assay [11] addresses T5, Cannabinoid receptor 1. The experiment in a line: Displacement of [3H]CP55,940 from human recombinant CB1 receptor expressed in CHO-K1 cells. The format is cell-based.
Assay [12] addresses T5, Cannabinoid receptor 1. In words: Displacement of [3H]CP55,940 from human recombinant CB1 receptor expressed in CHO-K1 cells at 10 uM. The assay is classed as cell-based.
Assay [13] concerns the target T2, N-arachidonyl glycine receptor (Homo sapiens). The experiment in a line: Antagonist activity against human GPR18 expressed in CHO cells assessed as reduction in delta9-THC-induced beta-arrestin recruitment at 10 uM by beta-galactosidase enzyme fragment complementation method. The format is cell-based.
The target of assay [14] is Cannabinoid receptor 1 (Rattus norvegicus) (UniProt P20272). The experiment in a line: Displacement of [3H]CP55,940 from CB1 receptor in rat brain cortical membranes at 10 uM. The format is cell membranes.
Assay [15] can be described thus: Displacement of [3H]diazepam from GABAA receptor in rat brain cortical membranes. The assay is classed as cell membranes.

T1 sequence (Q9Y2T6 whole entry, the tested form may be a part): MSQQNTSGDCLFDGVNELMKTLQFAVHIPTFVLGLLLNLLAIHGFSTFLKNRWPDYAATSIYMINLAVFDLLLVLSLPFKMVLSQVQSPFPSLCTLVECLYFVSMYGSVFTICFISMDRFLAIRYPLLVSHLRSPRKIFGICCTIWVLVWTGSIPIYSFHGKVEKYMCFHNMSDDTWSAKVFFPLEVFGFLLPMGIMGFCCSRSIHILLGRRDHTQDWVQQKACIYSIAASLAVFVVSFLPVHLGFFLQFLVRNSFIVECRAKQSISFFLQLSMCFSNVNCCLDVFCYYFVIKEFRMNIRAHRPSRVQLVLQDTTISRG
T5 sequence (P21554 whole entry, the tested form may be a part): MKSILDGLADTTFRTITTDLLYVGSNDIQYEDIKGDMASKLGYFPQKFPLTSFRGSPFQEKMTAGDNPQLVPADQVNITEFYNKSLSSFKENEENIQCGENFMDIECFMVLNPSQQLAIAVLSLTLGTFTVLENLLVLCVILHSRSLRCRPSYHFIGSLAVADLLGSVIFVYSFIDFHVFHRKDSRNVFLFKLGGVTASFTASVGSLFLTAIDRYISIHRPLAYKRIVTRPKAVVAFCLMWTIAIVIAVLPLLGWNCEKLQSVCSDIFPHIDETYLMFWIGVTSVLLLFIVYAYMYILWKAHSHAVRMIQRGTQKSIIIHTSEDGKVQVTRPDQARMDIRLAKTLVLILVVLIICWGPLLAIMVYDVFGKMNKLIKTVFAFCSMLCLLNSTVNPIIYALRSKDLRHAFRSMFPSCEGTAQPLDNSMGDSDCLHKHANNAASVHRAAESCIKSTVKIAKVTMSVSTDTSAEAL
T3 sequence (P34972 whole entry, the tested form may be a part): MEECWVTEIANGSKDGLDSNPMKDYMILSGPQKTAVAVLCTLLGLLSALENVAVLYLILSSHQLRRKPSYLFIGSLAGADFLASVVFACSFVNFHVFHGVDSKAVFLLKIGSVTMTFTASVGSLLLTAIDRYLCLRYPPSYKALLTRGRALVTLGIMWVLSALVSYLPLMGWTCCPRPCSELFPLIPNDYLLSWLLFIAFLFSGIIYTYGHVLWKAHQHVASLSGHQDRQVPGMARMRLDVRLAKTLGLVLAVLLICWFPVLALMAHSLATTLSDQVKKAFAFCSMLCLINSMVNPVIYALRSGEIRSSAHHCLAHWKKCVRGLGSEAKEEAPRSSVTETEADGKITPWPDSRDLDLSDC
Sequence of Cannabinoid receptor 1 (Rattus norvegicus, UniProt P20272) (P20272 whole entry, the tested form may be a part): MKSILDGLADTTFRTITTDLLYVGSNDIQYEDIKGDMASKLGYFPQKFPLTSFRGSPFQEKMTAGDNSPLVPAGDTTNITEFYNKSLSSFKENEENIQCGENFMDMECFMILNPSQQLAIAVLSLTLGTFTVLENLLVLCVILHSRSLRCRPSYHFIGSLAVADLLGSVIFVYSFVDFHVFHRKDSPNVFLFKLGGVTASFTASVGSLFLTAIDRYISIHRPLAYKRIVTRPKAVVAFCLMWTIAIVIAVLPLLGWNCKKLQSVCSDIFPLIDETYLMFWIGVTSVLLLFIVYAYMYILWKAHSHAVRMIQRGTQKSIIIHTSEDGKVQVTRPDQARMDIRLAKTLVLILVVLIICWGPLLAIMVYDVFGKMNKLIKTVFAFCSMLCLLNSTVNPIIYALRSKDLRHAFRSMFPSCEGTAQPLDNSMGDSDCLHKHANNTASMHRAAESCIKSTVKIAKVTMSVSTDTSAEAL
Sequence of Cannabinoid receptor 1 (Rattus norvegicus) (P20272 whole entry): as the sequence (P20272 whole entry, the tested form may be a part) above

For `O=C1/C(=C/c2cccc(Oc3ccccc3)c2)N=C2SCCCCN12`, the Intrinsic activity is -21% in assay [1] and -37% at Cannabinoid receptor 1 [9]. The Ki at Cannabinoid receptor 1 [2] is 3.63 µM; at Cannabinoid receptor 2 [5], over 10 µM; at Cannabinoid receptor 1 [11] it was 1.6 µM. The Activity came to 5% in assay [3] and 1% in assay [4]. The inhibition in assay [6] came to 33%; at Cannabinoid receptor 2 [7], 21%. Also, the IC50 in assay [8] is 14.1 µM; in [10] it was over 10 µM.

In the case of `O=C1N2CCCSC2=NC1(c1ccccc1)c1ccccc1`, the inhibition at Cannabinoid receptor 1 [12] was 25%; in assay [13], 0%; in assay [6] it was 23%; on Cannabinoid receptor 2 [7], 5%. The Intrinsic activity in assay [1] was -21%; at Cannabinoid receptor 1 [9], -31%. Also, the values for the Ki at Cannabinoid receptor 1 [2], at Cannabinoid receptor 2 [5] and on Cannabinoid receptor 1 [11] were 7.68 µM, over 10 µM and over 10 µM, respectively. Moreover, the Activity in [3] stood at 19%; in assay [4] it was 14%. Moreover, the IC50 in [8] and in assay [10] was over 10 µM throughout.

Consider `O=C1/C(=C/c2ccc(Cl)cc2)N=C2SCCCN12`, for which the inhibition at Cannabinoid receptor 1 [12] amounted to 25%; in assay [13] it was 18%; in [6], 35%; at Cannabinoid receptor 2 [7], 23%; in assay [14], 15%. Further, the Ki on Cannabinoid receptor 1 [2], on Cannabinoid receptor 2 [5] and on Cannabinoid receptor 1 [11] was over 10 µM in each case. The Activity came out at 0% in assay [3] and 13% in [4]. For the same molecule, the IC50 in assay [8] and in [10] was over 10 µM each time.

Consider `O=C1N=C2SCCCCN2C1(c1ccccc1)c1ccccc1`, for which the inhibition on Cannabinoid receptor 1 [12] was 34%; in [13], 0%; in [6] it was 32%; on Cannabinoid receptor 2 [7], 10%. For the same molecule, the figures for the Intrinsic activity (in assay [1]; on Cannabinoid receptor 1 [9]) were -19% and -48%, respectively. The inhibitory constant (Ki) at Cannabinoid receptor 1 [2] was 21.3 µM; at Cannabinoid receptor 2 [5], over 10 µM; on Cannabinoid receptor 1 [11] it was over 10 µM. Also, the Activity came to 10% in assay [3] and 11% in [4]. Also, the IC50 in assay [8] and in [10] was over 10 µM throughout.

`O=C1N=C2SCCCN2C1(c1ccccc1)c1ccccc1`: the inhibition on Cannabinoid receptor 1 [12] was determined as 13%; in assay [13] it was 0%; in [6], 2%; on Cannabinoid receptor 2 [7], 9%; in assay [14], 4%. Also, the inhibitory constant (Ki) at Cannabinoid receptor 1 [2], at Cannabinoid receptor 2 [5] and at Cannabinoid receptor 1 [11] was over 10 µM each time. Besides, the Activity was found to be 53% in assay [3] and 11% in assay [4]. Further, the IC50 in assay [8] and in assay [10] was over 10 µM in each case.

Turning to `O=C1/C(=C/C=C/c2ccccc2)N=C2SCCCN12`, the inhibition at Cannabinoid receptor 1 [12] was 16%; in [13], 0%; in assay [6], 27%; on Cannabinoid receptor 2 [7] it was 37%; in assay [14], 18%. Moreover, the inhibition constant (Ki) at Cannabinoid receptor 1 [2], at Cannabinoid receptor 2 [5] and on Cannabinoid receptor 1 [11] was over 10 µM throughout. Besides, the Activity in assay [3] came out at 29%; in assay [4], 7%. The IC50 in assay [8] and in [10] was over 10 µM each time.

In the case of `COc1ccccc1/C=C1\N=C2SCCCN2C1=O`, the inhibition at Cannabinoid receptor 1 [12] was 4%; in [13] it was 0%; in assay [6], 33%; at Cannabinoid receptor 2 [7] it was 27%; in assay [14], 4%. For the same molecule, the inhibitory constant (Ki) on Cannabinoid receptor 1 [2], on Cannabinoid receptor 2 [5] and at Cannabinoid receptor 1 [11] was over 10 µM in each case. Moreover, the Activity in assay [3] is 12%; in [4], 0%. The IC50 in assay [8] and in [10] was over 10 µM in each case.

With `COc1ccc(/C=C2\N=C3SCCCN3C2=O)cc1`, the inhibition at Cannabinoid receptor 1 [12] is 39%; in [13], 10%; in assay [6], 16%; at Cannabinoid receptor 2 [7], 6%; in assay [14], 5%. Also, the inhibition constant (Ki) on Cannabinoid receptor 1 [2], on Cannabinoid receptor 2 [5] and at Cannabinoid receptor 1 [11] was over 10 µM throughout. For the same molecule, the Activity in [3] turned out to be 37%; in assay [4] it was 0%. Further, the half-inhibitory concentration (IC50) in [8] and in [10] was over 10 µM in each case.

Regarding `CCOC(=O)C1CN2C(=O)C(c3ccccc3)(c3ccccc3)N=C2S1` (configuration not stated), the inhibition at Cannabinoid receptor 1 [12] is 2%; in assay [13], 0%; in assay [6], 10%; on Cannabinoid receptor 2 [7], 0%; in assay [14] it was 38%. Further, the Ki on Cannabinoid receptor 1 [2], at Cannabinoid receptor 2 [5] and at Cannabinoid receptor 1 [11] was over 10 µM each time. For the same molecule, the values for the Activity in assay [3] and in [4] were 39% and 11%, respectively. The IC50 in assay [8] and in assay [10] was over 10 µM each time.

In the case of `C/C(=C1/N=C2SCCCCN2C1=O)c1ccccc1`, the inhibition was 10% on Cannabinoid receptor 1 [12]; 4% in [13]; 25% in assay [6]; 17% on Cannabinoid receptor 2 [7]; 3% in assay [14]. Further, the Ki on Cannabinoid receptor 1 [2], at Cannabinoid receptor 2 [5] and at Cannabinoid receptor 1 [11] was over 10 µM each time. Also, the Activity in [3] is 1%; in assay [4], 14%. For the same molecule, the IC50 in [8] and in assay [10] was over 10 µM each time.

In the case of `CC(C)c1ccc(/C=C2\N=C3SCCCN3C2=O)cc1`, the inhibition came to 12% on Cannabinoid receptor 1 [12]; 4% in [13]; 38% in assay [6]; 17% at Cannabinoid receptor 2 [7]; 6% in assay [14]. The inhibition constant Ki at Cannabinoid receptor 1 [2], at Cannabinoid receptor 2 [5] and at Cannabinoid receptor 1 [11] was over 10 µM throughout. For the same molecule, the Activity in assay [3] stood at 13%; in assay [4], 0%. In addition, the half-maximal inhibitory concentration (IC50) in assay [8] and in assay [10] was over 10 µM throughout.

Turning to `O=C1/C(=C/c2ccc([N+](=O)[O-])cc2)N=C2SCCCN12`, the inhibition on Cannabinoid receptor 1 [12] is 0%; in [13], 20%; in [6] it was 12%; on Cannabinoid receptor 2 [7] it was 20%; in [14], 23%. Also, the Ki at Cannabinoid receptor 1 [2], on Cannabinoid receptor 2 [5] and at Cannabinoid receptor 1 [11] was over 10 µM each time. The Activity in [3] came to 39%; in [4], 0%. The 50% inhibitory concentration (IC50) in assay [8] and in assay [10] was over 10 µM in each case.

For `O=C1/C(=C/c2cccc(Oc3ccccc3)c2)N=C2SCCCN12`, the inhibition amounted to 29% on Cannabinoid receptor 1 [12], 54% in assay [13], 33% in assay [6] and 9% on Cannabinoid receptor 2 [7]. In addition, the Intrinsic activity was -15% in assay [1] and -49% on Cannabinoid receptor 1 [9]. The Ki on Cannabinoid receptor 1 [2] is 6.58 µM; at Cannabinoid receptor 2 [5], over 10 µM; at Cannabinoid receptor 1 [11], over 10 µM. Moreover, the figures for the Activity in [3] and in assay [4] were 13% and 5%, respectively. Further, the figures for the concentration for half-maximal inhibition (IC50) in assay [8] and in assay [10] were 10 µM and over 10 µM, respectively.

As for `O=C(Oc1cccc(/C=C2\N=C3SCCCN3C2=O)c1)c1ccccc1`, the inhibition came to 2% on Cannabinoid receptor 1 [12], 7% in [6], 47% on Cannabinoid receptor 2 [7] and 13% in [14]. Moreover, the Ki was over 10 µM at Cannabinoid receptor 1 [2], at least 10 µM on Cannabinoid receptor 2 [5], over 10 µM in assay [15] and over 10 µM at Cannabinoid receptor 1 [11]. The Activity was determined as 49% in assay [3] and 0% in assay [4]. Moreover, the IC50 in assay [8] is 6.35 µM; in [10], over 10 µM.

For the molecule `CCOC(=O)C1CN2C(=NC(=O)C2(c2ccccc2)c2ccccc2)S1` (configuration not stated), the inhibition was 26% at Cannabinoid receptor 1 [12]; 0% in [13]; 41% in assay [6]; -5% at Cannabinoid receptor 2 [7]; 0% in assay [14]. For the same molecule, the Ki at Cannabinoid receptor 1 [2], on Cannabinoid receptor 2 [5] and at Cannabinoid receptor 1 [11] was over 10 µM throughout. Moreover, the Activity in assay [3] was 58%; in assay [4] it was 7%. In addition, the half-maximal inhibitory concentration (IC50) in assay [8] and in assay [10] was over 10 µM each time.
